“And” between values parts separate entries of the source, which are not always exact repeats. Equal values may be shown once.
Tested on: Jurkat human lymphoid cells
Experiment: Lipid peroxide (LP) quantity in cells with or without UV irradiation, fluorescent probe, flow cytometry
Type: cell-based
Conditions: for Fluorescence intensity Mean: mean of triplicate; for % of control: relative LP quantity; for 1/fluorescence intensity: relative quantity of lipid peroxides
Source text: The purpose of the study is to evaluate the effects of the maca peptide extract on the lipid peroxidation rate (LP) in human cells (Jurkat) exposed or not to UVA+UVB radiation. LP measurement was made with a specific fluorescent probe by flow cytometry. This method has the advantage of showing great sensitivity when measuring the fluorescence of individual cells, over a large number of cells (10 000 cells analysed per sample). The cells used are Jurkat human lymphoid cells distributed in 24-well plates with 8.10^5 cells/well. The culture medium is RPMI 1640 (Invitrogen 31870-025) at […] and in the presence of 5% CO2. The test medium is MEM without phenol red and without calf serum (Polylabo 5503401). Tests are conducted with the peptide extract obtained in example 1, with twofold dilution i.e. in the form of an extract with 5% dry matter. A solution S1 containing 2% of this extract is prepared in the test medium. The control used is butyl hydroxyanisol (BHA Sigma ref. B 1253) in a […] solution in absolute ethanol. Tests are conducted with a solution S2 containing 100 μM BHA prepared in the test medium. […] Rad. Biol. Med., 1997, 22, 13-100) in a 5 μM solution in absolute ethanol. The tests are conducted using a 1 μM probe solution S3 prepared in the test medium. The human cells are pre-incubated in the culture medium, then washed in the test medium. They are subsequently incubated in the presence of the S1 solution of the peptide extract or the S2 control solution. The probe solution S3 is added to each batch for LP assay. After 45 minutes incubation, the fluorescent probe is removed by washing in the test medium. Part of the batches are then irradiated with […], another part without irradiation used as control. After 20 minutes incubation the fluorescence parameters are measured by flow cytometry. Determination of the relative quantity of lipid peroxides (LP) is based on measurement of the reduction in fluorescence of the probe integrated in the cell membranes. An increase in the fluorescence signal translates a reduction in the basal rate of membrane lipid peroxides. The studies are conducted in triplicate. The results obtained are expressed as the value of fluorescence intensity, and percentages with respect to the control are calculated using the values of fluorescence intensity.

COc1ccc(O)c(C(C)(C)C)c1 [BHA, butyl hydroxyanisol]
Fluorescence intensity Mean (with UV irradiation, BHA 100 μM, extract 2% solution): 374.67
% of control (with UV irradiation, Test +UV = 100): 50%
1/fluorescence intensity (with UV irradiation): 0.00267
Fluorescence intensity (with UV irradiation, single replicate values, BHA 100 μM, extract 2% solution): 362.40 and 368.20 and 393.42
Fluorescence intensity Mean (without UV, BHA 100 μM, 2% MC101): 753
% of control (without UV, Control -UV = 100): 67%
1/fluorescence intensity (without UV): 0.00133
Fluorescence intensity n = 10000 cells (without UV, single replicate values, BHA 100 μM, 2% MC101): 741.05 and 745.64 and 770.93
